The nature of data set [1]: Solubility per "Testing Method For Determining The Solubility", Chinese Pharmacopoeia 2005. Format: physicochemical. To be noted: water, 25±1° C. The source says: (Testing method is according to the “Testing Method For Determining The Solubility” in The Chinese Pharmacopoeia 2005, the example section of the second part, the last line on the first page to the first line on the second.)
2. […] It can ensure that the drug can be steadily released after taking orally. The drug can mix with one's internal environment easily after release, which renders the steady absorption of the drug, and the achievement of a relatively stable bioavailability.

Data set [2] has as its system renal interstitial cell. To be noted: cited from earlier work.
Data set [3] can be described thus: Solubility measurement: excess sample shaken in purified water for 48 hours, filtered supernatant measured. The data set is classed as physicochemical. The following applies: thermodynamic from solid, shaken 48 hours. As to the method:
Solubility measurement: excess crystalline FFD solid dispersion was put into a cone-shaped bottle with a stopper. After 100 ml purified water was added, the solution was shaken at a constant of 25° C. and 37° C. separately for 48 hours. The filtered supernatants were diluted and their concentrations were measured thrice for each sample.

Each structure is given as a SMILES string. ≈ marks a conversion by molar mass, not a printed value. Read-outs that look alike come from different tables or passages of the source.

Turning to `Cc1ccc(=O)n(-c2cccc(F)c2)c1` [FFD, 1-(3-fluorophenyl)-5-methyl-2-(1H)-pyridone], the solubility in data set [1] (25 °C, thermodynamic from solid, read-out: solubility) was in the range of 1410 to 1490 µg/mL (≈ 6.94 to 7.33 mM). In addition, the effect on anti-fibrosis entry in data set [2] is listed as “good effect on anti-fibrosis”.
On to `Cc1ccc(=O)n(-c2cccc(F)c2)c1` [crystalline FFD, 1-(3-fluorophenyl)-5-methyl-2-(1H)-pyridone], for which the solubility in data set [1] was 2.44˜2.55 mg/ml. Besides, the solubility at 48 h in data set [3] (25° C.) fell in the range of 2440 to 2550 µg/mL (≈ 12 to 12.5 mM); in data set [3] (37° C.) it was 3140 to 3160 µg/mL.

By solubility is commonly meant the dissolved amount per volume that the medium holds.
